Laboratory results: ChEMBL document CHEMBL1134059, “Synthesis and antifungal activities of novel 1,3-beta-D-glucan synthase inhibitors. Part 2” (Bioorg Med Chem Lett, 2001)
pIC50: −log10 of the molar value. In brackets after ≈: the same amount, converted by molar mass. Numbered stars: 1 amine (or outer) side, 2 acyl side, 3 side chain; on linkers, the order of the positions; unused ones are H or OH. Bridge positions count the residues as written; N and C are the ends. Square brackets hold non-standard residues; d marks the D form. Peptide text beside a SMILES is read from it. * marks the point of attachment. pTerphenylCO(4''-OnC5H11) = CCCCCOc1ccc(-c2ccc(-c3ccc(C(=O)*)cc3)cc2)cc1; Orn(4R-OH,5R-OH) = O=C([C@H](C[C@@H](O)[C@@H](O)N[*:3])N[*:1])[*:2]; hTyr(3S-OH,4S-OH) = N[C@H](C(=O)O)[C@H](O)[C@@H](O)c1ccc(O)cc1; Pro(3S-OH,4S-Me) = C[C@H]1CN[C@H](C(=O)O)[C@H]1O; Gln(3R-OH) = NC(=O)C[C@@H](O)[C@H](N)C(=O)O; X1 = CCCCCCCCCCCCC[C@H](CC(=O)[*:1])O[*:2]; Pro(3S-OH) = O=C(O)[C@H]1NCC[C@@H]1O; d(aThr) = C[C@@H](O)[C@@H](N)C(=O)O; Hyp = O=C(O)[C@@H]1C[C@@H](O)CN1; Orn = NCCC[C@H](N)C(=O)O

Assays:
Candida albicans [1] = test: In vitro antifungal activity against Candida albicans CY1002; type: functional, organism-based
Mus musculus [2] = species: Mus musculus; test: Hepatotoxicity using inclusion-body formation test in hepatocytes of mice; type: functional, Hepatocyte
Beta-1,3-glucan synthase = Beta-1,3-glucan synthase (Candida albicans, UniProt O13428); test: In vitro inhibitory activity against Beta glucan synthase
Candida albicans [3] = test: In vitro antifungal activity against Candida albicans CY1002 using 80 percent serum; type: functional, organism-based
Mus musculus [4] = test: In vivo efficacy against Candida albicans CY1002 5E6 cells for systemic candidiasis in mice after iv treatment on day 7; type: functional; details: CY1002 5E6, iv, 168 h
Mus musculus [5] = test: In vivo efficacy against Aspergillus fumigatus CF1083 1E4 conidia/g for pulmonary aspergillosis in mice after iv treatment on day 14; type: functional; details: 336 h
Nakaseomyces glabratus = test: Antifungal activity against Candida glabrata ATCC 2001; type: functional
Scedosporium boydii = test: Antifungal activity against Scedosporium […] IFM40731N.; type: functional
Candida albicans [6] = test: Antifungal activity against Candida albicans KB fluconazole resistant strain.; type: functional
Aspergillus fumigatus = test: Antifungal activity against Aspergillus fumigatus MTU06002; type: functional
Candida tropicalis = test: Antifungal activity against Candida tropicalis ATCC 13803; type: functional
Lomentospora prolificans = test: Antifungal activity against Scedosporium prolificans ATCC 20054; type: functional
Pichia kudriavzevii = test: Antifungal activity against Candida krusei ATCC 20579; type: functional
Candida albicans [7] = test: Antifungal activity against Candida albicans ATCC 48130; type: functional

Sequence of Beta-1,3-glucan synthase (O13428 whole entry): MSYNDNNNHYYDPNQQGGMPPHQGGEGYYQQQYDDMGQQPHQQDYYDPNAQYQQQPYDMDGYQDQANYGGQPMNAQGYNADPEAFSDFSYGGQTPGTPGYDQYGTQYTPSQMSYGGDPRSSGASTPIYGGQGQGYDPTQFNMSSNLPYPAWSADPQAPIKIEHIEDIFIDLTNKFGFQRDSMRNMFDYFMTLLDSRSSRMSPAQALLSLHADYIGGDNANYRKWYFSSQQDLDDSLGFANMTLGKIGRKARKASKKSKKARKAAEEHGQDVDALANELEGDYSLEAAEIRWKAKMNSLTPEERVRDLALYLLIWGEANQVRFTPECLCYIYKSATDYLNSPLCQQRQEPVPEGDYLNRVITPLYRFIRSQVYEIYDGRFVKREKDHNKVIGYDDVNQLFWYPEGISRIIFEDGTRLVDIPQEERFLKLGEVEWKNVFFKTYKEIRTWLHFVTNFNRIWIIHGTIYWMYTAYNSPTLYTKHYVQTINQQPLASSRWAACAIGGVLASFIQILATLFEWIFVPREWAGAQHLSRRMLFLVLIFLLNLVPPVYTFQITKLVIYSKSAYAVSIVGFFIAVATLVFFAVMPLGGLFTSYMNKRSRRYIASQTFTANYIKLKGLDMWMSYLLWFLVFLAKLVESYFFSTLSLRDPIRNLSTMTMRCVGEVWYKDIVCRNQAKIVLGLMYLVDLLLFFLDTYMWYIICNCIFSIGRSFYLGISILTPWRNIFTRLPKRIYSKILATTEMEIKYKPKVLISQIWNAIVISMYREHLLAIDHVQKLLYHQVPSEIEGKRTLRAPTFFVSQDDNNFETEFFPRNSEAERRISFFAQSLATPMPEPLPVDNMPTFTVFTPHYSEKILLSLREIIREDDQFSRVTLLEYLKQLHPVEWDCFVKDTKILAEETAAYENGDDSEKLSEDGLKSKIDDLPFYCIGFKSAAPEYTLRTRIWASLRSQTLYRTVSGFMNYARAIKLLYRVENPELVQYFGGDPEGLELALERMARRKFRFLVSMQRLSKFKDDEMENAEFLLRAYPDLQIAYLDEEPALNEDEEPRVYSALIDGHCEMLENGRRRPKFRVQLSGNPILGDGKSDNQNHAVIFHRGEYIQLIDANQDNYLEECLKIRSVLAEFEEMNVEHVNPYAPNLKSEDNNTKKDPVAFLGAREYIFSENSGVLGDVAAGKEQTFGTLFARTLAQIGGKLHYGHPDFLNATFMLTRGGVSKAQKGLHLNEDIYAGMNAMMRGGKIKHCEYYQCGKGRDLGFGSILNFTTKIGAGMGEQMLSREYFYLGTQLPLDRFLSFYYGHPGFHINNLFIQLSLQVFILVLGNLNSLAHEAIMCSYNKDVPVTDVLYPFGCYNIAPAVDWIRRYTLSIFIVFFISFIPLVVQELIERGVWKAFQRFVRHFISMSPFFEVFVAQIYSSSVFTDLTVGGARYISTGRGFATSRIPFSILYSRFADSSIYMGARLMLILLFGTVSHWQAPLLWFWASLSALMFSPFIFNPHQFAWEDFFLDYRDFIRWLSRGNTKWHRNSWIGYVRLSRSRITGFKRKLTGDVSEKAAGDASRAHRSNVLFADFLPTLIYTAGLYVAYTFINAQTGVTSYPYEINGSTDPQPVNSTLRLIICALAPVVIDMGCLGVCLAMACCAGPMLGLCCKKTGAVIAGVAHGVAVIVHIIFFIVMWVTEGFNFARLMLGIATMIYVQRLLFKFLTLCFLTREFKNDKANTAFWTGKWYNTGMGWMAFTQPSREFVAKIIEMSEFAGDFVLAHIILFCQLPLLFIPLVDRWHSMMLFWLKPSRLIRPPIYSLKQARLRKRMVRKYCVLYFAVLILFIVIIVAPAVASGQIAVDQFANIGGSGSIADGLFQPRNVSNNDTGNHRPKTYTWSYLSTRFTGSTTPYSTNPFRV

Row | Compound | IC50 (Candida albicans [1]) | Observed at (Mus musculus [2]) | pIC50 (Beta-1,3-glucan synthase) | IC50 (Candida albicans [3]) | ED50 (Mus musculus [4]) | ED50 (Mus musculus [5]) | MIC (Nakaseomyces glabratus) | MIC (Scedosporium boydii) | MIC (Candida albicans [6]) | MIC (Aspergillus fumigatus) | MIC (Candida tropicalis) | MIC (Lomentospora prolificans) | MIC (Pichia kudriavzevii) | MIC (Candida albicans [7])
1 | CCCCCCCCCCCCC[C@@H]1CC(=O)N[C@H]([C@@H](C)O)C(=O)N[C@H](C)C(=O)N[C@@H](Cc2ccc(O)cc2)C(=O)N[C@@H](C(C)C)C(=O)N2C[C@H](O)C[C@H]2C(=O)N[C@H]([C@@H](C)O)C(=O)N[C@@H]([C@@H](C)O)C(=O)N2CC[C@H](O)[C@H]2C(=O)N[C@@H]([C@H](O)CC(N)=O)C(=O)NCC(=O)N[C@H]([C@@H](C)O)C(=O)N[C@@H](CCCN(CCN)CCN)C(=O)O1 | 0.1 µg/mL (≈ 0.0617 µM) | 10 µg/mL | 8.85 | 0.42 µg/mL (≈ 0.259 µM) | 0.05 mg/kg | 13.3 mg/kg | – | – | – | – | – | – | – | –
2 | CCCCCCCCCCCCC[C@@H]1CC(=O)N[C@H]([C@@H](C)O)C(=O)N[C@H](C)C(=O)N[C@@H](Cc2ccc(O)cc2)C(=O)N[C@@H](C(C)C)C(=O)N2C[C@H](O)C[C@H]2C(=O)N[C@H]([C@@H](C)O)C(=O)N[C@@H]([C@@H](C)O)C(=O)N2CC[C@H](O)[C@H]2C(=O)N[C@@H]([C@H](O)CC(N)=O)C(=O)NCC(=O)N[C@H]([C@@H](C)O)C(=O)N[C@@H](CCCNC(=O)[C@H](N)CCCN)C(=O)O1 | 0.12 µg/mL (≈ 0.0728 µM) | 30 µg/mL | 8.44 | 0.33 µg/mL (≈ 0.2 µM) | 0.1 mg/kg | – | – | – | – | – | – | – | – | –
3 | CCCCCOc1ccc(-c2ccc(-c3ccc(C(=O)N[C@@H]4C[C@@H](O)[C@@H](O)NC(=O)C5[C@@H](OC)[C@@H](OC)CN5C(=O)[C@H]([C@@H](C)O)NC(=O)[C@H]([C@H](O)[C@@H](O)c5ccc(O)cc5)NC(=O)[C@@H]5C[C@@H](O)CN5C(=O)[C@H]([C@@H](C)O)NC4=O)cc3)cc2)cc1 (stereo partly specified) | – | – | 7.74 | – | – | – | – | – | – | – | – | – | – | –
4 | CCCCCCCCCCCCC[C@@H]1CC(=O)N[C@H]([C@@H](C)O)C(=O)N[C@H](C)C(=O)N[C@@H](Cc2ccc(O)cc2)C(=O)N[C@@H](C(C)C)C(=O)N2C[C@H](O)C[C@H]2C(=O)N[C@H]([C@@H](C)O)C(=O)N[C@@H]([C@@H](C)O)C(=O)N2CC[C@H](O)[C@H]2C(=O)N[C@@H]([C@H](O)CC(N)=O)C(=O)NCC(=O)N[C@H]([C@@H](C)O)C(=O)N[C@@H](CCCN(CCCN)C(=O)[C@H](CCCN)N(CCN)CCN)C(=O)O1 | 0.45 µg/mL (≈ 0.251 µM) | 100 µg/mL | 9.55 | 0.31 µg/mL (≈ 0.173 µM) | 0.08 mg/kg | 8.6 mg/kg | 1 µg/mL (≈ 0.558 µM) | 0.35 µg/mL (≈ 0.195 µM) | 0.35 µg/mL (≈ 0.195 µM) | 0.37 µg/mL (≈ 0.207 µM) | 0.63 µg/mL (≈ 0.352 µM) | 0.38 µg/mL (≈ 0.212 µM) | 0.31 µg/mL (≈ 0.173 µM) | 0.41 µg/mL (≈ 0.229 µM)
5 | CCCCCOc1ccc(-c2ccc(-c3ccc(C(=O)N[C@H]4C[C@@H](O)[C@@H](O)NC(=O)[C@@H]5[C@@H](O)[C@@H](C)CN5C(=O)[C@H]([C@@H](C)O)NC(=O)[C@H]([C@H](O)[C@@H](O)c5ccc(O)cc5)NC(=O)[C@@H]5C[C@@H](O)CN5C(=O)[C@H]([C@@H](C)O)NC4=O)cc3)cc2)cc1 ({pTerphenylCO(4''-OnC5H11)}-[Orn(4R-OH,5R-OH)]T[Hyp][hTyr(3S-OH,4S-OH)]T[Pro(3S-OH,4S-Me)]; lactam 1-C) [listing 1 of 2 here] | 0.014 µg/mL (≈ 0.0123 µM) | – | – | 0.55 µg/mL (≈ 0.482 µM) | – | – | – | – | – | – | – | – | – | –
6 | CCCCCOc1ccc(-c2ccc(-c3ccc(C(=O)N[C@H]4C[C@@H](O)[C@@H](O)NC(=O)[C@@H]5[C@@H](O)[C@@H](C)CN5C(=O)[C@H]([C@@H](C)O)NC(=O)[C@H]([C@H](O)[C@@H](O)c5ccc(O)cc5)NC(=O)[C@@H]5C[C@@H](O)CN5C(=O)[C@H]([C@@H](C)O)NC4=O)cc3)cc2)cc1 ({pTerphenylCO(4''-OnC5H11)}-[Orn(4R-OH,5R-OH)]T[Hyp][hTyr(3S-OH,4S-OH)]T[Pro(3S-OH,4S-Me)]; lactam 1-C) [listing 2 of 2 here] | – | 1 µg/mL | – | – | 0.22 mg/kg | – | – | – | – | – | – | – | – | –
7 | CCCCCCCCCCCCC[C@@H]1CC(=O)N[C@H]([C@@H](C)O)C(=O)N[C@H](C)C(=O)N[C@@H](Cc2ccc(O)cc2)C(=O)N[C@@H](C(C)C)C(=O)N2C[C@H](O)C[C@H]2C(=O)N[C@H]([C@@H](C)O)C(=O)N[C@@H]([C@@H](C)O)C(=O)N2CC[C@H](O)[C@H]2C(=O)N[C@@H]([C@H](O)CC(N)=O)C(=O)NCC(=O)N[C@H]([C@@H](C)O)C(=O)N[C@@H](CCCN)C(=O)O1 [FR-901469] ([d(aThr)][dA]YV[Hyp][d(aThr)]T[Pro(3S-OH)][Gln(3R-OH)]G[d(aThr)][Orn]; linker N-C via X1) | 0.07 µg/mL (≈ 0.0456 µM) | 10 µg/mL | 8.07 | 0.54 µg/mL (≈ 0.352 µM) | 0.22 mg/kg | > 15 mg/kg | – | – | – | – | – | – | – | –
